Data reported in patent US20240103005A1, “N-ACRYLOYLINDOLES AND METHODS OF USE” (The University of Hong Kong, priority 2022, published 2024).
Entries after “also recorded” stand apart in the source; their conditions may differ. One block for each compound: values may come before it.

What was measured:
[1] = Reaction kinetics of cysteine-reactive compounds with N-acetyl-L-cysteine methyl ester (LC-MS); type: physicochemical; conditions: for time to complete reaction with N-acetylcysteine methyl ester: PBS/MeOH 4:1; for calculated rate constant, fold faster than NAIA: reaction with N-Ac-Cys-OMe 250 μM
Experimental: Reaction Kinetics of Cysteine-Reactive Compounds with N-Acetyl-L-Cysteine Methyl Ester
Stock solution of cysteine-reactive compound in DMSO was diluted by PBS/MeOH solution mixture (4:1, v/v; 500 μL), reaching final concentration of 10 μM. Stock solution of N-acetyl-L-cysteine methyl ester in DMSO was then freshly prepared, and added to the compound solution at final concentration of 250 μM. The solution mixture was incubated at room temperature, and at predetermined time intervals, an aliquot of the reaction mixture (10 μL) was sent for LC-MS analysis on Waters Autopurification System using a SunFire C18 HPLC column (50×4.6 mm with 5 μm diameter particles, Waters). Separation was achieved by gradient elution from 5% to 100% MeCN in water (constant 0.1 vol % formic acid) over 4 min, isocratic elution with 100% MeCN (with 0.1 vol % formic acid) from 4 to 8 min, and returning to 5% MeCN in water (with 0.1 vol % formic acid) and equilibrated for 2 min. Selected ion chromatograms, with m/z corresponding to the molecular ion of the compound and/or the adduct, were extracted and the data was analyzed using MassLynx™ software by calculating the area under the curve. The peak area was then calibrated to concentration of the compound/adduct by a set of solution mixtures containing known concentrations of the compound/adduct.
The reactivity of NAIA with cysteine in aqueous buffer solution has been investigated by LC-MS experiments (FIGS. 1A-1J). […] Upon addition of N-acetylcysteine methyl ester (250 μM), NAIA-5 reacted quickly and completely with N-acetylcysteine methyl ester within […], as reflected by the diminishment of the peak of NAIA-5 at t=6.20 min with a concomitant growth of a new peak at t=5.60 min in the LC, which is attributable to the cysteine adduct of NAIA-5 based on the MS (FIGS. 1B-1G). […] This highlights the important contribution of aromaticity of indole scaffold to increase electrophilicity of acrylamide warhead for fast and complete cysteine reaction in aqueous buffer solution.
Next, we monitored the reaction between NAIA-amide (10 μM) and N-acetylcysteine methyl ester (250 μM) by LC-MS analysis (FIG. 17A). Complete conversion of NAIA-C5 amide was observed within 40 s as indicated by the disappearance of NAIA-C5 amide peak (t=5.09 min) and emergence of the adduct peat (t=4.80 min) in the LC trace (FIG. 17B). Likewise, the reaction of NAIA-C4 amide proceeded with fast kinetics and was completely consumed in 1 min (FIG. 17C). The calculated rate constant of NAIA-C5 amide and NAIA-C4 amide were 2-fold and 1.2-fold faster than NAIA (FIG. 17D). […] Owning to the excellent reaction rate of NAIA-C5 amide, it was taken forward for further comparative analysis in subsequent experiments.

[2] = Stability in aqueous buffer solution over time (LC-MS); type: physicochemical
Experimental: Stability of NAIA-5 in Aqueous Buffer Solution Over Time
NAIA-5 (10 μM) was dissolved in PBS/MeOH solution mixture (4:1, v/v; 500 μL) and stay at room temperature. At predetermined time intervals, an aliquot of the reaction mixture (10 μL) was sent for LC-MS analysis on Waters Autopurification System using a SunFire C18 HPLC column (50×4.6 mm with 5 μm diameter particles, Waters). Separation was achieved by gradient elution from 5% to 100% MeCN in water (constant 0.1 vol % formic acid) over 4 min, isocratic elution with 100% MeCN (with 0.1 vol % formic acid) from 4 to 8 min and returning to 5% MeCN in water (with 0.1 vol % formic acid) and equilibrated for 2 min. Selected ion chromatograms, with m/z=325 corresponding to [NAIA-5+H]^+, were extracted and analyzed by integrating the area under curve.
(§1) As fast-reacting probes are often susceptible to hydrolysis, we sought to investigate the aqueous stability of NAIA-C5 amide. […] Taking the excellent reaction kinetics and a mere 14% degradation in 30 min into account, NAIA-C5 amide was considered to be a useful tool in cysteine profiling (FIG. 17C and FIG. 17F).

[3] = Selectivity for reacting with Cys over other amino acids (LC-MS); type: physicochemical; conditions: compound 10 μM, amino acid 30 μM (3 equiv.), 30 min, PBS/MeOH 4:1
Experimental: Selectivity of NAI for Reacting with Cys Over Other Amino Acids
Stock solution of NAIA-4 and NAIA-5, respectively, in DMSO was diluted by PBS/MeOH solution mixture (4:1, v/v; 500 μL), reaching final concentration of 10 μM. Stock solution of amino acid in DMSO was then freshly prepared, and added to the compound solution at final concentration of 30 μM. The solution mixture was incubated at room temperature for 30 min. After that, an aliquot of the reaction mixture (10 μL) was sent for LC-MS analysis. Selected ion chromatograms, with m/z=325 corresponding to [NAIA-4+H]^+ or [NAIA-5+H]^+, were extracted and analyzed by integrating the area under curve.
as §1

HCT116 cell lysates = assay: Gel-based ABPP, Cys labeling of HCT116 cell lysates; type: biochemical
Experimental: FIGS. 18A-18B Gel-based ABPP analysis of NAIA-amides, NAIA-5 and IAA on Cys labeling of HCT116 cell lysates in vitro. HCT116 cell lysates (100 μg) were incubated with the compounds at indicated concentrations and time intervals, following by CuAAC reaction with azide-fluor 545 (25 μM). The labeled proteins were then boiled with sampling buffer, and read out by in-gel fluorescence after SDS-PAGE.
Confirming the reaction between NAIA-C5 amide and cysteine in vitro, we moved on to evaluate its application for cysteine profiling in complex biological sample. To assess this, we performed gel-based ABPP in cell lysates and in live cells. HCT116 cell lysates were incubated with IAA, NAIA and NAIA-Amide, followed by installation of fluorophore by click chemistry. Then, the labelled proteins were resolved by SDS-PAGE and visualized by their in-gel fluorescence. […] In time-dependent experiments, a 15-minute incubation of NAIA-C5 amide with HCT116 cell lysates was sufficient to have decent labeling, highlighting its quick labeling (FIG. 18B).

231MFP cells [4] = assay: Gel-based ABPP, Cys labeling in live 231MFP cells; type: cell-based; conditions: 1 h pre-treatment
Experimental: FIGS. 10A-10D. Gel-based ABPP experiments of NAIA-4 to investigate its ability to label Cys in cell lysates and live cells. (FIGS. 10A-10B) 231MFP cell lysates (20 μg) were incubated with NAIA-4 or IAA at indicated concentrations for 30 min, following by CuAAC reaction with azide-fluor 545 (5 μM). The labeled proteins were then boiled with sampling buffer, and read out by in-gel fluorescence after SDS-PAGE. Quantified data were shown in average±s.e.m. from n=3 replicates/group. Statistical significance vs untreated control is expressed as *p<0.05; ***p<0.001, and vs different treatment groups is expressed as “p<0.01; ^###p<0.001. (FIGS. 10C-10D) 231MFP cells were pre-treated with NAIA-4 or IAA at indicated concentrations for 1 h. The cells were then washed with DPBS and lysed in DPBS by probe sonication. The cell lysates were labeled with azide-fluor 545 (25 μM) by CuAAC reaction, and the labeled protein were detected by in-gel fluorescence after SDS-PAGE. Quantified data were shown in average±s.e.m. from n=3 biological replicates/group. Statistical significance is expressed as *p<0.05; ***p<0.001.
In-Gel Fluorescence for Visualizing Cys Labeling by NAIAs and IAA in Live Cells
231MFP or HepG2 cells were grown in 10-cm plates in complete medium. […] Protein concentration of the lysates was determined by BCA assay, and the lysates were diluted to 2 mg/mL by DPBS. […]

231MFP cell lysates = assay: Gel-based ABPP, Cys labeling of 231MFP cell lysates (in-gel fluorescence); type: biochemical; conditions: 30 min incubation
Experimental: FIGS. 10A-10D. Gel-based ABPP experiments of NAIA-4 to investigate its ability to label Cys in cell lysates and live cells. (FIGS. 10A-10B) 231MFP cell lysates (20 μg) were incubated with NAIA-4 or IAA at indicated concentrations for 30 min, following by CuAAC reaction with azide-fluor 545 (5 μM). The labeled proteins were then boiled with sampling buffer, and read out by in-gel fluorescence after SDS-PAGE. Quantified data were shown in average±s.e.m. from n=3 replicates/group. Statistical significance vs untreated control is expressed as *p<0.05; ***p<0.001, and vs different treatment groups is expressed as “p<0.01; ^###p<0.001. (FIGS. 10C-10D) 231MFP cells were pre-treated with NAIA-4 or IAA at indicated concentrations for 1 h. […] The cell lysates were labeled with azide-fluor 545 (25 μM) by CuAAC reaction, and the labeled protein were detected by in-gel fluorescence after SDS-PAGE. Quantified data were shown in average±s.e.m. from n=3 biological replicates/group. Statistical significance is expressed as *p<0.05; ***p<0.001.
In-Gel Fluorescence for Visualizing Cys Labeling by NAIAs and IAA In Vitro
HepG2 or 231MFP cells were lysed by probe sonication in DPBS, and cell debris were removed by centrifugation at 1,000 g for 5 min. Protein concentration of the lysates was determined by bicinchoninic acid (BCA) assay, and the lysates were then diluted to 2 mg/mL by DPBS. […]

231MFP cells [5] = assay: WST-8 cell viability assay; type: cell-based; conditions: WST-8, 2 h incubation; read-out: IC50 (cytotoxicity)
Experimental: WST-8 Cell Viability Assay of Cells Treated with NAIA-4 or IAA
231MFP cells were plated on 96-well plates (Corning, 3904) at 30,000 cells per well and allowed to grow in complete medium overnight. The cells were then incubated with DMSO solvent control, NAIA-4 or IAA at indicated concentrations for 2 h. The solution was replaced with new culture medium containing 10 μL of WST-8 solution (Abcam; ab228554) and incubated for 2 h in dark at 37° C. Cell viability were then assayed by the absorption at 460 nm on SpectraMax i3 (Molecular Devices).

[6] = compound 10 μM, N-Ac-Cys-OMe 250 μM

Compound: C=CC(=O)N1CCc2ccccc21 [NAine, N-acryloylindoline]
reaction kinetics with cysteine (k) ([1]; FIG. 7 legend summary): < 10^0 M^−1 s^−1

degradation in aqueous buffer ([2]; 30 min): 14%
Compound: C#CCCCCNC(=O)c1ccc2c(ccn2C(=O)C=C)c1 [NAIA-C5 amide]
change of compound level in aqueous buffer solution over time (in words) ([2]; 10 μM, PBS/MeOH 4:1, room temperature): gradual degradation was observed in 3 hours
selectivity toward cysteine over other amino acids [3]: only incubation with cysteine consumed NAIA-C5 amide to an undetectable level
in-gel fluorescence (in words) (HCT116 cell lysates): comparable to that by NAIA; also recorded: significantly stronger fluorescence was detected in samples incubated with NAIA or NAIA-C5 amide in a dose-dependent manner
overall in-gel fluorescence intensity, fold higher than IAA (HCT116 cell lysates): 3 fold
incubation time sufficient for decent labeling (HCT116 cell lysates; time-dependent experiment): 15 min
time to complete reaction with N-acetylcysteine methyl ester [1, 6]: ≤ 40 s
calculated rate constant, fold faster than NAIA [1]: 2 fold

Compound: C#CCCCCNC(=O)COc1cccc2c1ccn2C(=O)C=C [NAIA-4]
selectivity toward cysteine over other amino acids [3]: excellent selectivity toward cysteine over other amino acids; also recorded: Significant decreases in NAIA-4 and NAIA-5 levels were only found in the solution mixture with N-acetyl-L-cysteine methyl ester
cysteine labeling in live cells (in-gel fluorescence) compared with IAA (231MFP cells [4]): more labeling of functional cysteines by NAIA-4 than IAA
cysteine labeling (in-gel fluorescence) compared with IAA (231MFP cell lysates): better labeling from NAIA-4 than IAA at all the doses tested
IC50 (231MFP cells [5]): > 40 µM
time to complete reaction with N-acetylcysteine methyl ester [1, 6]: ≤ 120 s

Compound: C#CCCCCNC(=O)c1cccc2c1ccn2C(=O)C=C [NAIA-C4 amide]
time to complete consumption by N-acetylcysteine methyl ester [1, 6]: 1 min
calculated rate constant, fold faster than NAIA [1]: 1.2 fold

Compound: C#CCCCCNC(=O)c1cn(C(=O)C=C)c2ccccc12 [NAIA-C3 amide]
cysteine reaction rate (in words) [1, 6]: reacted relatively slower despite it still showed superior reaction kinetics over IAA
